Source: the supplement of paper PMC6461962

Legend:
[1] = tested on: Pseudomonas fluorescens FW300-N2E2
Summary of the method: (§1)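 Washed cells (final OD600 0.02, 80 µL) were added to 384-well plates of serially diluted inorganic ion salts or equimolar nitrilotriacetic acid complexes. Aerobic plates were shaken at 700 rpm at 30 °C, and anaerobic plates were left unshaken. OD600 was read at 24 h (48 h for R2A strain comparisons) and scaled between water and growth-blocking antibiotic controls, dropping wells with precipitate. IC50 came from drc R package fits of at least two biological replicate curves.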

[2] = tested on: Rhodanobacter sp. FW104-10B01
Summary of the method: as §1

[3] = medium / electron acceptor: N2E2 Glucose/aerobic
[4] = medium / electron acceptor: N2E2 Glucose/aerobic 0.25xMinerals
[5] = medium / electron acceptor: N2E2 Glucose/aerobic (2)
[6] = medium / electron acceptor: N2E2 KB/aerobic
[7] = medium / electron acceptor: N2E2 LB/aerobic
[8] = medium / electron acceptor: N2E2 LB/aerobic (2)
[9] = medium / electron acceptor: N2E2 LB/nitrate
[10] = medium / electron acceptor: N2E2 Lactate/aerobic
[11] = medium / electron acceptor: N2E2 R2A/aerobic
[12] = medium / electron acceptor: 10B01 R2A/aerobic
[13] = medium / electron acceptor: 10B01 R2A/nitrate

Row | Structure (SMILES) | IC50 growth inhibition [1, 3] [mM] | IC50 growth inhibition [1, 4] [mM] | IC50 growth inhibition [1, 5] [mM] | IC50 growth inhibition [1, 6] [mM] | IC50 growth inhibition [1, 7] [mM] | IC50 growth inhibition [1, 8] [mM] | IC50 growth inhibition [1, 9] [mM] | IC50 growth inhibition [1, 10] [mM] | IC50 growth inhibition [1, 11] [mM] | IC50 growth inhibition [2, 12] [mM] | IC50 growth inhibition [2, 13] [mM]
1 | [O-][Cl+2]([O-])O [Sodium Chlorate] | 9.21 | 8.75 | 0.387 | 5.02 | 24.5 | 54.4 | 4.33 | 15.7 | 45.9 | 355 | < 0.244
2 | [Cl-].[Na+] [Sodium Chloride] | 699 | 708 | 603 | 660 | 708 | 718 | 622 | 707 | 671 | 708 | 545
3 | [O-][Cl+]O [Sodium Chlorite] | < 0.00244 | < 0.00244 | < 0.00244 | < 0.00244 | 0.0105 | < 0.00244 | 0.00287 | < 0.00244 | 0.00662 | > 5 | > 5
4 | O.O.O.O.O.O.O.O=[As]([O-])([O-])O.[Na+].[Na+] [Sodium arsenate dibasic heptahydrate] | < 0.244 | < 0.244 | < 0.244 | < 0.244 | < 0.244 | < 0.244 | 5.13 | < 0.244 | 0.874 | > 500 | > 500
5 | OCl [Sodium hypochlorite] | > 5 | > 5 | 2.28 | > 5 | > 5 | > 5 | 0.534 | > 5 | 3.32 | > 5 | > 5
6 | O=P[O-].[Na+] [Sodium hypophosphite monohydrate] | 354 | 451 | 146 | 380 | 354 | > 500 | 306 | 354 | > 500 | 354 | 171
7 | O=[Si](O)O [Sodium metasilicate] | < 0.244 | < 0.244 | < 0.244 | < 0.244 | < 0.244 | < 0.244 | < 0.244 | < 0.244 | < 0.244 | < 0.244 | < 0.244
8 | [Na+].[O]=[V](=[O])[O-] [Sodium metavanadate] | 0.0793 | 0.432 | 0.0997 | < 0.0244 | 3.26 | 13.4 | 6.94 | 2.34 | 8.62 | > 50 | > 50
9 | [Na+].[Na+].[O]=[Mo](=[O])([O-])[O-] [Sodium molybdate] | 20.3 | 2.62 | 3.39 | 337 | 369 | 354 | 214 | 162 | 231 | 354 | 262
10 | O=[N+]([O-])[O-].[Na+] [Sodium nitrate] | 275 | > 500 | 324 | 354 | 354 | 383 | > 500 | 354 | 400 | > 500 | > 500
11 | O=NO [Sodium nitrite] | 17.3 | 6.63 | 3.89 | 15.3 | 22.8 | 41.6 | 14.8 | 23 | 8.81 | > 50 | > 50
12 | [O-][Cl+3]([O-])([O-])O [Sodium perchlorate monohydrate] | 67.2 | 356 | 117 | 82 | 95 | 106 | 69.8 | 235 | 89.4 | 354 | 5.54
13 | [O-][I+3]([O-])([O-])O [Sodium periodate] | 5.52 | 2.35 | 1.56 | 0.326 | 0.813 | 2.35 | 0.146 | 27.4 | 0.772 | 0.101 | 0.0825
14 | O=P([O-])(O)O.[Na+] [Sodium phosphate monobasic monohydrate] | 50.2 | > 500 | 73.8 | 308 | 307 | 354 | 2.25 | 30.3 | 15.7 | 354 | 128
15 | OP(O)O [Sodium phosphite dibasic pentahydrate] | < 0.244 | < 0.244 | < 0.244 | 2.03 | 354 | 354 | 118 | < 0.244 | 309 | > 500 | 197
16 | O=P(O)(O)OP(=O)(O)O [Sodium pyrophosphate dibasic] | 29.4 | 0.848 | 0.226 | 1.78 | 36.1 | 25.4 | 4.34 | > 50 | 2.35 | 8.54 | 0.854
17 | O=[Se](=O)([O-])[O-].[Na+].[Na+] [Sodium selenate] | < 0.244 | < 0.244 | < 0.244 | 290 | 354 | 300 | 189 | < 0.244 | 62.5 | 251 | 163
18 | O=[Se]([O-])[O-].[Na+].[Na+] [Sodium selenite pentahydrate] | < 0.244 | < 0.244 | < 0.244 | < 0.244 | < 0.244 | < 0.244 | 250 | < 0.244 | < 0.244 | 250 | 112
19 | O.O.O.O.O.O.O.O.O.O.O=S(=O)([O-])[O-].[Na+].[Na+] [Sodium sulfate] | 356 | > 500 | > 500 | > 500 | 455 | > 500 | 311 | 384 | 183 | 354 | 317
20 | OP(O)(O)=S [Sodium thiophosphate tribasic hydrate] | > 50 | > 50 | > 50 | 42.2 | > 50 | 33.1 | 21 | > 50 | > 50 | > 50 | > 50
21 | O=S(O)(O)=S [Sodium thiosulfate] | 318 | > 500 | 386 | 319 | 363 | 360 | 185 | 355 | 360 | > 500 | 57.6
22 | O.O.[Na+].[Na+].[O]=[W](=[O])([O-])[O-] [Sodium tungstate dihydrate] | < 0.244 | < 0.244 | 3.31 | 1.17 | 0.539 | 20.5 | 21.3 | < 0.244 | 237 | > 500 | > 500
